Where two headings read alike, the source gives them in different places.

The target of the assay is T1, human Keap1 kelch domain (amino acids Ala321 -Thr609) (Homo sapiens, UniProt Q14145).
T1 construct: human Keap1 kelch domain (amino acids Ala321 -Thr609)
Kind of assay: Keap1-Nrf2 peptide binding assay (fluorescence polarisation). The following applies: Keap1 kelch domain 20 nM, fluorescently labeled Nrf2 peptide 50 nM. The method, then:
A fluorescence polarisation assay was used to measure binding of the human Keap1 kelch domain (amino acids Ala321 -Thr609) to a fluorescently labeled peptide containing a Keap1 binding site of human Nrf2 (Alexa633-AFFAQLQLDEETGEFL; JPT Technologies, Berlin, Germany). Two microliters of test compound in reaction buffer (phosphate-buffered saline, 2 mM DL-dithiothreitol, 0.015 % (v/v) Brij-35) containing 6 % (v/v) DMSO were mixed with two microliters of the Keap1 kelch domain in reaction buffer in a black 384-well small volume microtiter plate and incubated at ambient temperature for 15 minutes. Thereafter, two microliters were added of the fluorescently labeled Nrf2 peptide in reaction buffer, and the mixture was incubated for a further 30 minutes at ambient temperature. Final concentrations of the Keap1 kelch domain and the fluorescently labeled Nrf2 peptide were 20 nM and 50 nM, respectively.
Fluorescence polarization (FP) was measured at excitation and emission wavelengths of 635 nm and 660 nm, respectively. Positive controls for binding (two microliters of reaction buffer containing 6 % (v/v) DMSO instead of test compound in the same buffer) and negative controls (as positive controls, but without Keap1 kelch domain) were included on each microtiter plate. Data were expressed as percent-inhibition values: percent inhibition = 100⋅(1(|FPcompound-FPnegative control|)/(|FPpositive control-FPnegative control|)) [formula]
IC50 values were determined by testing different compound concentrations and fitting the resulting percent-inhibition values to the following equation using XLFit4: percent inhibition = A + (B-A)/(1 + (((IC50)/([Compound])))^D) [formula]
Parameter A was set to zero, pre-fit values for parameters B and D were set to 100 and 1, respectively.

T1 sequence (Q14145 321-609): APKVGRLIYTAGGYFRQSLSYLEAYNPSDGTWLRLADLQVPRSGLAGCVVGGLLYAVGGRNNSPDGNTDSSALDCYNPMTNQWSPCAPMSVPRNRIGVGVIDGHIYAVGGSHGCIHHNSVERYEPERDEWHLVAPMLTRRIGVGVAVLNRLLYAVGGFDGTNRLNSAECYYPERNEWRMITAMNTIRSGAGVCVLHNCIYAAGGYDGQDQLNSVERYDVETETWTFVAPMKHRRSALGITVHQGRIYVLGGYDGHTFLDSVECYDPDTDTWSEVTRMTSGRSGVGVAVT

The term IC50 denotes the concentration that gives 50% inhibition. Take `Cc1cc(C)c(C)c(S(=O)(=O)Nc2cc(-c3ccc(C(=O)O)cc3)cc3ccccc23)c1C` [Example 1, 4-[4-[(2,3,5,6-tetramethylphenyl)sulfonylamino]-2-naphthyl]benzoic acid]: the IC50 was found to be 2500 nM.
As to `Cc1cc(C)c(C)c(S(=O)(=O)Nc2cc(-c3ccc(O)c(C(=O)O)c3)cc3ccccc23)c1C` [Example 2, 2-hydroxy-5-[4-[(2,3,5,6-tetramethylphenyl)sulfonylamino]-2-naphthyl]benzoic acid], the IC50 (read-out: IC50) was found to be 4100 nM.
The same measure, in the same setting: under `Cc1cc(C)c(C)c(S(=O)(=O)Nc2cc(-c3cncc(C(=O)O)c3)cc3ccccc23)c1C` [Example 3, 5-[4-[(2,3,5,6-tetramethylphenyl)sulfonylamino]-2-naphthyl]pyridine-3-carboxylic acid] stands 1900 nM.
Regarding `Cc1cc(C)c(C)c(S(=O)(=O)Nc2cc(-c3cccc(C(=O)O)c3)cc3ccccc23)c1C` [Example 4, 3-[4-[(2,3,5,6-tetramethylphenyl)sulfonylamino]-2-naphthyl]benzoic acid], the IC50 came to 1500 nM.
Turning to `Cc1cc(C)c(C)c(S(=O)(=O)Nc2cc(-c3cc(F)cc(C(=O)O)c3)cc3ccccc23)c1C` [Example 5, 3-fluoro-5-[4-[(2,3,5,6-tetramethylphenyl)sulfonylamino]-2-naphthyl]benzoic acid], the IC50 (read-out: IC50) turned out to be 2100 nM.
The same measure, in the same setting: the value for `Cc1cc(C)c(C)c(S(=O)(=O)Nc2cc(-c3cccc(C(=O)O)c3F)cc3ccccc23)c1C` [Example 6, 2-fluoro-3-[4-[(2,3,5,6-tetramethylphenyl)sulfonylamino]-2-naphthyl]benzoic acid] was 5600 nM.
On the same count and under the same terms, the value for `Cc1cc(C)c(C)c(S(=O)(=O)Nc2cc(-c3cc(Cl)cc(C(=O)O)c3)cc3ccccc23)c1C` [Example 7, 3-chloro-5-[4-[(2,3,5,6-tetramethylphenyl)sulfonylamino]-2-naphthyl]benzoic acid] was 3300 nM; that for `Cc1cc(C)c(C)c(S(=O)(=O)Nc2cc(-c3ccc(Cl)c(C(=O)O)c3)cc3ccccc23)c1C` [Example 8, 2-chloro-5-[4-[(2,3,5,6-tetramethylphenyl)sulfonylamino]-2-naphthyl]benzoic acid] was 1600 nM.
For `CC(=O)Nc1cc(C(=O)O)cc(-c2cc(NS(=O)(=O)c3c(C)c(C)cc(C)c3C)c3ccccc3c2)c1` [Example 9, 3-acetamido-5-[4-[(2,3,5,6-tetramethylphenyl)sulfonylamino]-2-naphthyl]benzoic acid], the IC50 is 400 nM.
In the case of `Cc1cc(C)c(C)c(S(=O)(=O)Nc2cc(-c3ccc(F)c(C(=O)O)c3)cc3ccccc23)c1C` [Example 10, 2-fluoro-5-[4-[(2,3,5,6-tetramethylphenyl)sulfonylamino]-2-naphthyl]benzoic acid], the IC50 (read-out: IC50) was determined as 1800 nM.
Same read-out and setting: under `Cc1cc(C)c(C)c(S(=O)(=O)Nc2cc(-c3cc(C(=O)O)n(C)n3)cc3ccccc23)c1C` [Example 11, 2-methyl-5-[4-[(2,3,5,6-tetramethylphenyl)sulfonylamino]-2-naphthyl]pyrazole-3-carboxylic acid] stands 5700 nM.
On the same count and under the same terms, under `Cc1cc(C)c(C)c(S(=O)(=O)Nc2cc(-c3ccc(C(=O)O)s3)cc3ccccc23)c1C` [Example 12, 5-[4-[(2,3,5,6-tetramethylphenyl)sulfonylamino]-2-naphthyl]thiophene-2-carboxylic acid] stands 12000 nM.
